Source: PubChem BioAssay AID1648 (Sanford-Burnham Center for Chemical Genomics, 2009)
Activity calls are given as the source filed them. No rule for the calls is given here.

molecular target: Serine/threonine-protein kinase mTOR (Homo sapiens) (UniProt P42345); test: mTOR FRB domain ligand binding – biophysical, NMR (AID 1648); details: NMR binding to FRB domain, chemical shift
Sequence (P42345 2015-2114): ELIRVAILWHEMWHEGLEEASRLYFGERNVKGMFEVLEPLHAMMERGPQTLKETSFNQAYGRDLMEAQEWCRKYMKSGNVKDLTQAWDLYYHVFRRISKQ

Compound | Kd
C(=C\c1ccccc1)/C=N/n1cnnc1 | > 4 mM (inactive)
COc1cc(C(=O)O[C@H]2CC[C@@]3(C)[C@@H]4CC[C@H]5[C@]6(O)C[C@H](O)[C@@]7(O)[C@@H](CN8C[C@@H](C)CC[C@H]8[C@@]7(C)O)[C@]6(O)C[C@@]53OC24O)cc(OC)c1OC | > 4 mM (inactive)
CC(=O)O[C@@H]1CC2C(C)(C)[C@H](O)C[C@H](O)[C@]2(C)C2CC[C@@]3(C)C(=CC(=O)O[C@H]3c3ccoc3)[C@@]21C (some centres not stated) | > 4 mM (inactive)
COc1ccccc1-c1noc(-c2ccco2)n1 | > 4 mM (inactive)
Cc1cc(C(=O)Nc2sc3c(c2C#N)CCC3)no1 | > 4 mM (inactive)
Nc1ccc2nsnc2c1 | > 4 mM (inactive)
CN(C)c1ccc(NC(=O)CC(C(=O)O)N(C)C)cc1 (configuration not stated) | > 4 mM (inactive)
Cc1nnc(-n2cnc3ccccc32)c2ccccc12 | > 4 mM (inactive)
CCOC(=O)CSCC(=O)Nc1nccs1 | > 4 mM (inactive)
O=C1OCCC1Sc1nc2ccccc2c(=O)[nH]1 (configuration not stated) | > 4 mM (inactive)
Cc1ccc(S(C)(=O)=O)s1 | > 4 mM (inactive)
Cn1[nH]c(C(F)(F)F)cc1=O | > 4 mM (inactive)
COc1cc(O)c(C)c(O)c1 | > 4 mM (inactive)
Nc1nc(SCC(=O)c2ccc([N+](=O)[O-])cc2)n[nH]1 | > 4 mM (inactive)
COC(CC(=O)O)c1nc2ccccc2s1 (configuration not stated) | > 4 mM (inactive)
C=C(C)[C@@H]1CC[C@]2(CO)CC[C@]3(C)[C@H](CCC4[C@@]5(C)CC[C@H](O)C(C)(C)C5CC[C@]43C)C12 (some centres not stated) | > 4 mM (inactive)
O=C1c2ccccc2-c2ncnc3cccc1c23 | > 4 mM (inactive)
c1ccc(Cc2nnc3sc(-c4ccccn4)nn23)cc1 | > 4 mM (inactive)
O=c1[nH]oc2ccccc12 | > 4 mM (inactive)
NS(=O)(=O)c1ccc(NC(=O)c2cccs2)cc1 | > 4 mM (inactive)
CCOC(=O)c1c(C)[nH]c2ccc(O)cc12 | > 4 mM (inactive)
Cc1nn(C)c2sc(CO)cc12 | > 4 mM (inactive)
O=C(O)C1CCCN1Cc1c[nH]c2ccccc12 (configuration not stated) | > 4 mM (inactive)
O=C(O)CCc1ccc2c(c1)OCO2 | > 4 mM (inactive)

Compound | Kd
CC(C)=CCC1=C(O)c2ccccc2C(=O)C1=O | > 4 mM (inactive)
Cc1nc(NC2=NCCC(=O)N2)nc2ccccc12 | > 4 mM (inactive)
Cc1ncc(C(=O)O)c(-c2ccccc2)n1 | > 4 mM (inactive)
NC(=O)CSc1nnc2ccc(-c3ccco3)nn12 | > 4 mM (inactive)
NCc1ccc(-c2cccs2)s1 | > 4 mM (inactive)
CN1CCC(NC(=O)c2cccnc2)CC1 | > 4 mM (inactive)
COCc1cc(Cl)nc(-c2csc(C)n2)n1 | > 4 mM (inactive)
CO[C@H]1[C@@H](O)[C@@H](C)O[C@H](O[C@H]2CCC3(C)C4CCC5(C)[C@@H](C6=CC(=O)OC6)CC[C@]5(O)[C@@H]4CC[C@]3(O)C2)[C@@H]1O (some centres not stated) | > 4 mM (inactive)
CC(=O)Nc1cnn(-c2ccccc2)c(=O)c1Cl | > 4 mM (inactive)
Cn1ncc2c(=O)n(CC(=O)c3ccccc3)cnc21 | > 4 mM (inactive)
Cn1c(SCC(N)=O)nnc1-c1cccnc1 | > 4 mM (inactive)
Cc1cc(=O)n(C(N)=S)[nH]1 | > 4 mM (inactive)
Oc1ccc(C(=S)N2CCOCC2)cc1 | > 4 mM (inactive)
COC(=O)c1scc(S(C)(=O)=O)c1-n1cccc1 | > 4 mM (inactive)
COc1ccc(-c2c(OC)c3c(OC)c4c(cc3oc2=O)OC(C)(C)C=C4)cc1 | > 4 mM (inactive)
COc1cc(S(=O)(=O)N(C)C)ccc1F | > 4 mM (inactive)
CC(C)(C)C(=O)N1CCCC1C(=O)O (configuration not stated) | > 4 mM (inactive)
O=C(Nc1ccc2ccccc2c1)c1cnccn1 | > 4 mM (inactive)
CC(=O)N1CCN(C2CCSC2)CC1 (configuration not stated) | > 4 mM (inactive)
COc1ccc2c(c1O)-c1c(OC)c(OC)cc3c1[C@H](C2)N(C)CC3 | > 4 mM (inactive)
O=C1N=c2ccccc2=C1c1[nH]c(=S)[nH]c1O | > 4 mM (inactive)
O=C(Nc1nnc(-c2ccncc2)o1)c1cccs1 | > 4 mM (inactive)
CNC(=O)c1cccc(NC(=S)NC)c1 | > 4 mM (inactive)
CNC(=O)C(=O)Nc1c(C)cccc1C | > 4 mM (inactive)

Compound | Kd
O=c1sc2ccccc2n1CN1CCOCC1 | > 4 mM (inactive)
S=c1[nH]nc(-c2cccnc2)n1Cc1ccccc1 | > 4 mM (inactive)
COc1cccc(-c2nc3ccc(O)cc3c(=O)o2)c1 | > 4 mM (inactive)
Cn1cccc1C=C1C(=O)NC(=S)NC1=O | > 4 mM (inactive)
CC(=O)c1c(C)n(O)c2ccc3nonc3c12 | > 4 mM (inactive)
O=C(Nc1ccccc1)NC1CCS(=O)(=O)C1 (configuration not stated) | > 4 mM (inactive)
CCCn1c(S(=O)(=O)O)nc2ccccc21 | > 4 mM (inactive)
Cc1cc(Cl)ccc1NC(=O)C(N)=O | > 4 mM (inactive)
Cc1cccc(CO)n1 | > 4 mM (inactive)
NCc1cccc2c1OCCCO2 | > 4 mM (inactive)
N#Cc1cc2ccccc2nc1N | > 4 mM (inactive)
CSc1nnc2[nH]c(=O)cc(N)n12 | > 4 mM (inactive)
O=C(O)c1ccc2sccc2c1 | > 4 mM (inactive)
Nc1ncnc2nc[nH]c12 | > 4 mM (inactive)
Cc1cc(C)nc(N2CC(=O)N(C)C2=N)n1 | > 4 mM (inactive)
CSc1ncc(C(=O)O)n1Cc1ccccc1 | > 4 mM (inactive)
c1ccc2c(c1)[nH]c1cnccc12 | > 4 mM (inactive)
Cc1cc(C)c(C#N)c(N2CCCC2)n1 | > 4 mM (inactive)
Nc1ccc(OCc2ccccc2)cc1 | > 4 mM (inactive)
COc1ccc2c(=O)c(CC(=O)O)coc2c1 | > 4 mM (inactive)
O=C(Nc1ccncc1)Nc1ccc(F)cc1F | > 4 mM (inactive)
O=C(O)c1ccccc1C(=O)NCC1CCCO1 (configuration not stated) | > 4 mM (inactive)
COC(=O)Nc1nc2c(s1)CCCC2 | > 4 mM (inactive)
Cc1ccc(NC(=O)/C=C2\SC(=O)NC2=O)cc1 | > 4 mM (inactive)

Compound | Kd
O=C(O)c1ccc2snnc2c1 | > 4 mM (inactive)
COc1cc(O)cc(/C=C/c2ccccc2)c1 | > 4 mM (inactive)
O=c1c(-c2ccccc2)coc2cc(O)cc(O)c12 | > 4 mM (inactive)
O=C(Oc1ccc2c(c1)CCC2)N1CCOCC1 | > 4 mM (inactive)
Cc1nc(CC(=O)O)c(-c2ccccc2)s1 | > 4 mM (inactive)
CC(C)(C)P(=O)(O)c1ccccc1 | > 4 mM (inactive)
COc1ccc(C)cc1S(=O)(=O)NC1CCCC1 | > 4 mM (inactive)
S=C(NCc1cccnc1)NC1CC1 | > 4 mM (inactive)
Cc1cc(C)nc(/N=C(/N)N2CCC(C(N)=O)CC2)n1 | > 4 mM (inactive)
Nc1ccc(NC(=O)c2ccco2)c(Cl)c1 | > 4 mM (inactive)
COc1ccc(-c2cc(=O)c3c(O)cc(O[C@@H]4O[C@H](CO[C@H]5O[C@H](C)[C@@H](O)[C@H](O)[C@@H]5O)[C@@H](O)[C@H](O)[C@H]4O)cc3o2)cc1O | > 4 mM (inactive)
NC(CC(=O)O)c1ccccc1 (configuration not stated) | > 4 mM (inactive)
CSc1nc(C)c(Oc2ccccc2)c(=O)n1C | > 4 mM (inactive)
CN1C(=O)C(Cc2c[nH]c3ccccc23)C(=O)N(C)C1=O | > 4 mM (inactive)
O=C(NCc1ccncc1)c1cccc(F)c1 | > 4 mM (inactive)
NCc1ccc(N2CCOCC2)cc1 | > 4 mM (inactive)
NC1=NC(=O)C(Cc2cccc([N+](=O)[O-])c2)S1 (configuration not stated) | > 4 mM (inactive)
COc1ccc(-c2cc(=O)c3c(O)cc(O[C@H]4O[C@H](CO[C@@H]5O[C@@H](C)[C@H](O)[C@@H](O)[C@H]5O)[C@@H](O)[C@H](O)[C@H]4O)cc3o2)cc1 | > 4 mM (inactive)
Cn1nnc2cc(CN)ccc21 | > 4 mM (inactive)
Cn1cccc1C(=O)NS(=O)(=O)c1ccccc1Cl | > 4 mM (inactive)
CC(C)c1c(O)c(-c2cc3c(c(C(C)C)c2O)CCC2C(C)(C)CCC[C@]32C)cc2c1CCC1C(C)(C)CCC[C@]21C (some centres not stated) | > 4 mM (inactive)
CC(=O)Nc1cccc(N2CCCC2=O)c1 | > 4 mM (inactive)
O=C(Nc1cnc2ccccn2c1=O)c1ccc(F)cc1 | > 4 mM (inactive)
Nc1cccc(OC(F)(F)F)c1 | > 4 mM (inactive)

Compound | Kd
NC(Cn1ccc(=O)c(O)c1)C(=O)O (configuration not stated) | > 4 mM (inactive)
NC(c1ccccc1)c1ccccn1 (configuration not stated) | > 4 mM (inactive)
C[C@@H]1[C@H]2[C@H](O[C@@H]3O[C@H](CO)[C@@H](O)[C@H](O)[C@H]3O)OC=C(C(=O)O)[C@H]2C[C@@H]1O | > 4 mM (inactive)
Clc1ccccc1-c1nc(-c2cccnc2)no1 | > 4 mM (inactive)
O=C(O)C1CC(=O)N(Cc2cccs2)C1 (configuration not stated) | > 4 mM (inactive)
CC(=O)NC(C)(C)C1CC=C(C)/C(=N\O)C1 (configuration not stated) | > 4 mM (inactive)
CC(=O)OC1CCC2(O)CC1(C)CCC1C2CC1(C)C (configuration not stated) | > 4 mM (inactive)
NC(=O)CSc1nc2ncnc(N)c2[nH]1 | > 4 mM (inactive)
O=C(Nc1ccccc1Cl)c1cnccn1 | > 4 mM (inactive)
O=P(O)(Cc1ccccc1)c1ccccc1 | > 4 mM (inactive)
C=C[C@](C)(O)CCC=C(C)C | > 4 mM (inactive)
COc1cc(O)c(C(=O)c2ccccc2)cc1O | > 4 mM (inactive)
COc1ccc(-c2cc(=O)c3c(O)cc(O)c(-c4cc(-c5cc(=O)c6c(O)cc(O)cc6o5)ccc4OC)c3o2)cc1 | > 4 mM (inactive)
Nc1ccccc1C(=O)CC(N)C(=O)O (configuration not stated) | > 4 mM (inactive)
OC1CC2CCC1C2 (configuration not stated) | > 4 mM (inactive)
Nc1cccc(S(=O)(=O)N2CCOCC2)c1 | > 4 mM (inactive)
NCc1cc2ccccc2s1 | > 4 mM (inactive)
CC1SC(=NC(=O)c2ccco2)NC1=O (configuration not stated) | > 4 mM (inactive)
CC1=NN(c2ccc(C)cc2)C(=O)C1 | > 4 mM (inactive)
CN(C)S(=O)(=O)Nc1ccc(Br)cc1F | > 4 mM (inactive)
CC(C)(C)CC(=O)NNC(=O)c1cnccn1 | > 4 mM (inactive)
